Each structure is given as a SMILES string.

This experiment deals with HT-29 cells. In words: HT29 Cells 0FBS Assay In Vitro (TNF-α/SMAC mimetic/zVAD-FMK induced necroptosis, CellTiter-Glo cell viability). In kind it is cell-based. The note with it: Homo sapiens; HT-29 cells, FBS free medium, TNF-α (10 ng/ml), SMAC mimetic (6 uM), zVAD-FMK (10 μM), 20 hours; geometric mean EC50; read-out: Cell activity (EC50) of Compounds 117-281. The method in brief: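 Viability was measured by ATP luminescence (CellTiter-Glo) after 20 h at 37° C of compound exposure in 10-point, 1:3 dilutions. Necroptosis in FBS-free HT-29 cultures was driven by a TNF-α (10 ng/ml), SMAC mimetic (6 μM) and zVAD-FMK (10 μM) cocktail. EC50 values are geometric means from duplicate curves.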
Consider `Cc1nc(C#N)c(C)n1-c1cc(OC2CN(C(=O)N3N=CC[C@H]3c3cc(F)cc(F)c3)C2)c(F)cn1` [compound 199, (S)-1-(4-((1-(5-(3,5-difluorophenyl)-4,5-dihydro-1H-pyrazole-1-carbonyl)azetidin-3-yl)oxy)-5-fluoropyridin-2-yl)-2,5-dimethyl-1H-imidazole-4-carbonitrile], for which the EC50 is 0.0001 to 0.1 µM. Take `Cc1nc(C(N)=O)c(C)n1-c1cc(OC2CN(C(=O)N3N=CC[C@H]3c3cc(F)cc(F)c3)C2)c(F)cn1` [compound 200, (S)-1-(4-((1-(5-(3,5-difluorophenyl)-4,5-dihydro-1H-pyrazole-1-carbonyl)azetidin-3-yl)oxy)-5-fluoropyridin-2-yl)-2,5-dimethyl-1H-imidazole-4-carboxamide]: the EC50 lay in the range of 0.0001 to 0.1 µM. Next, `Cn1nc(CF)nc1-c1cc(OC2CN(C(=O)N3N=CC[C@H]3c3cc(F)cc(F)c3)C2)c(F)cn1` [compound 201, (S)-(5-(3,5-difluorophenyl)-4,5-dihydro-1H-pyrazol-1-yl)(3-((5-fluoro-2-(3-(fluoromethyl)-1-methyl-1H-1,2,4-triazol-5-yl)pyridin-4-yl)oxy)azetidin-1-yl)methanone]: 0.0001 to 0.1 µM; `Cn1nc(CO)nc1-c1cc(OC2CN(C(=O)N3N=CC[C@H]3c3cc(F)cc(F)c3)C2)c(F)cn1` [compound 202, (S)-(5-(3,5-difluorophenyl)-4,5-dihydro-1H-pyrazol-1-yl)(3-((5-fluoro-2-(3-(hydroxymethyl)-1-methyl-1H-1,2,4-triazol-5-yl)pyridin-4-yl)oxy)azetidin-1-yl)methanone]: 0.0001 to 0.1 µM. In the case of `CSc1c(C)nn(-c2cc(OC3CN(C(=O)N4N=CC[C@H]4c4cc(F)cc(F)c4)C3)c(F)cn2)c1C` [compound 203, (S)-(5-(3,5-difluorophenyl)-4,5-dihydro-1H-pyrazol-1-yl)(3-((2-(3,5-dimethyl-4-(methylthio)-1H-pyrazol-1-yl)-5-fluoropyridin-4-yl)oxy)azetidin-1-yl)methanone] it was 0.0001 to 0.1 µM. On to `Cc1nn(-c2cc(OC3CN(C(=O)N4N=CC[C@H]4c4cc(F)cc(F)c4)C3)c(F)cn2)c(C)c1[S+](C)[O-]` (stereo partly drawn) [compound 204, ((S)-5-(3,5-difluorophenyl)-4,5-dihydro-1H-pyrazol-1-yl)(3-((2-(3,5-dimethyl-4-(methylsulfinyl)-1H-pyrazol-1-yl)-5-fluoropyridin-4-yl)oxy)azetidin-1-yl)methanone], for which the EC50 is 0.0001 to 0.1 µM. In the case of `Cc1n[nH]c(N)c1-c1cc(OC2CN(C(=O)N3N=CC[C@H]3c3cc(F)cc(F)c3)C2)c(F)cn1` [compound 205, (S)-(3-((2-(5-amino-3-methyl-1H-pyrazol-4-yl)-5-fluoropyridin-4-yl)oxy)azetidin-1-yl)(5-(3,5-difluorophenyl)-4,5-dihydro-1H-pyrazol-1-yl)methanone] it was 0.0001 to 0.1 µM. In the case of `Cc1c(-c2cc(OC3CN(C(=O)N4N=CC[C@H]4c4cc(F)cc(F)c4)C3)c(F)cn2)c(C)n(C)c1N` [compound 206, (S)-(3-((2-(5-amino-1,2,4-trimethyl-1H-pyrrol-3-yl)-5-fluoropyridin-4-yl)oxy)azetidin-1-yl)(5-(3,5-difluorophenyl)-4,5-dihydro-1H-pyrazol-1-yl)methanone] it was 0.0001 to 0.1 µM. Next, `Cc1c(N)nn(C)c1-c1ncc(F)c(OC2CN(C(=O)N3N=CC[C@H]3c3cc(F)cc(F)c3)C2)n1` [compound 207, (S)-(3-((2-(3-amino-1,4-dimethyl-1H-pyrazol-5-yl)-5-fluoropyrimidin-4-yl)oxy)azetidin-1-yl)(5-(3,5-difluorophenyl)-4,5-dihydro-1H-pyrazol-1-yl)methanone]: 0.0001 to 0.1 µM; `Cc1cnn(C)c1-c1cnc(F)c(OC2CN(C(=O)N3N=CC[C@H]3c3cc(F)cc(F)c3)C2)c1` [compound 208, (S)-(5-(3,5-difluorophenyl)-4,5-dihydro-1H-pyrazol-1-yl)(3-((5-(1,4-dimethyl-1H-pyrazol-5-yl)-2-fluoropyridin-3-yl)oxy)azetidin-1-yl)methanone]: 0.0001 to 0.1 µM.

As to `Cc1nn(C)c(-c2cc(OC3CN(C(=O)N4N=CC[C@H]4c4cc(F)cc(F)c4)C3)c(F)cn2)c1N` [compound 209, (S)-(3-((2-(4-amino-1,3-dimethyl-1H-pyrazol-5-yl)-5-fluoropyridin-4-yl)oxy)azetidin-1-yl)(5-(3,5-difluorophenyl)-4,5-dihydro-1H-pyrazol-1-yl)methanone], the EC50 lay within 0.0001 to 0.1 µM. Consider `Cc1nn(C)c(N)c1-c1cc(OC2CN(C(=O)N3N=CC[C@H]3c3cc(F)cc(F)c3)C2)c(F)cn1` [compound 210, (S)-(3-((2-(5-amino-1,3-dimethyl-11H-pyrazol-4-yl)-5-fluoropyridin-4-yl)oxy)azetidin-1-yl)(5-(3,5-difluorophenyl)-4,5-dihydro-1H-pyrazol-1-yl)methanone], for which the EC50 lay within 0.0001 to 0.1 µM. In the case of `Cc1c(CN)nn(C)c1-c1cc(OC2CN(C(=O)N3N=CC[C@H]3c3cc(F)cc(F)c3)C2)c(F)cn1` [compound 211, (S)-(3-((2-(3-(aminomethyl)-1,4-dimethyl-11H-pyrazol-5-yl)-5-fluoropyridin-4-yl)oxy)azetidin-1-yl)(5-(3,5-difluorophenyl)-4,5-dihydro-1H-pyrazol-1-yl)methanone] it was 0.0001 to 0.1 µM; in that of `Cc1c(NCCO)nn(C)c1-c1cc(OC2CN(C(=O)N3N=CC[C@H]3c3cc(F)cc(F)c3)C2)c(F)cn1` [compound 212, (S)-(5-(3,5-difluorophenyl)-4,5-dihydro-1H-pyrazol-1-yl)(3-((5-fluoro-2-(3-((2-hydroxyethyl)amino)-1,4-dimethyl-1H-pyrazol-5-yl)pyridin-4-yl)oxy)azetidin-1-yl)methanone], 0.0001 to 0.1 µM.

Consider `Cc1c(N2CC(O)C2)nn(C)c1-c1cc(OC2CN(C(=O)N3N=CC[C@H]3c3cc(F)cc(F)c3)C2)c(F)cn1` [compound 213, (S)-(5-(3,5-difluorophenyl)-4,5-dihydro-1H-pyrazol-1-yl)(3-((5-fluoro-2-(3-(3-hydroxyazetidin-1-yl)-1,4-dimethyl-1H-pyrazol-5-yl)pyridin-4-yl)oxy)azetidin-1-yl)methanone], for which the EC50 lay within 0.0001 to 0.1 µM. `Cc1nn(-c2cc(OC3CN(C(=O)N4N=CC[C@H]4c4cc(F)cc(F)c4)C3)c(F)cn2)c(C)c1C(=O)NCCO` [compound 214, (S)-1-(4-((1-(5-(3,5-difluorophenyl)-4,5-dihydro-1H-pyrazole-1-carbonyl)azetidin-3-yl)oxy)-5-fluoropyridin-2-yl)-N-(2-hydroxyethyl)-3,5-dimethyl-1H-pyrazole-4-carboxamide]: the EC50 fell in the range of 0.0001 to 0.1 µM. In the case of `Cc1c(N)nn(C)c1-c1ccc(F)c(OC2CN(C(=O)N3N=CC[C@H]3c3cc(F)cc(F)c3)C2)n1` [compound 215, (S)-(3-((6-(3-amino-1,4-dimethyl-1H-pyrazol-5-yl)-3-fluoropyridin-2-yl)oxy)azetidin-1-yl)(5-(3,5-difluorophenyl)-4,5-dihydro-1H-pyrazol-1-yl)methanone], the EC50 fell in the range of 0.0001 to 0.1 µM. In the case of `Cc1nn(-c2cc(OC3CN(C(=O)N4N=CC[C@H]4c4cc(F)cc(F)c4)C3)c(F)cn2)c(C)c1C(=O)NC1CCOCC1` [compound 216, (S)-1-(4-((1-(5-(3,5-difluorophenyl)-4,5-dihydro-1H-pyrazole-1-carbonyl)azetidin-3-yl)oxy)-5-fluoropyridin-2-yl)-3,5-dimethyl-N-(tetrahydro-2H-pyran-4-yl)-1H-pyrazole-4-carboxamide] it was 0.0001 to 0.1 µM.

The record behind these values is patent US12655125B2 (SIRONAX LTD., priority 2020, dated 2026).
